Experimental findings from US10336709B2, “Lp-PLA2 inhibitors” (ABIDE THERAPEUTICS, INC., priority 2015, dated 2019) are described below.

The term IC50 denotes the concentration needed to halve the response being measured.

Molecules are shown by their SMILES.

One assay deals with T1, Lp-PLA2 (Mus musculus, UniProt Q60963).
T1 construct: Mouse brain membrane proteomes (50 μL, 1.0 mg/mL total protein concentration) were preincubated; from tissue; host or cells: mouse brain membrane fraction
T1 sequence (Q60963 22-440): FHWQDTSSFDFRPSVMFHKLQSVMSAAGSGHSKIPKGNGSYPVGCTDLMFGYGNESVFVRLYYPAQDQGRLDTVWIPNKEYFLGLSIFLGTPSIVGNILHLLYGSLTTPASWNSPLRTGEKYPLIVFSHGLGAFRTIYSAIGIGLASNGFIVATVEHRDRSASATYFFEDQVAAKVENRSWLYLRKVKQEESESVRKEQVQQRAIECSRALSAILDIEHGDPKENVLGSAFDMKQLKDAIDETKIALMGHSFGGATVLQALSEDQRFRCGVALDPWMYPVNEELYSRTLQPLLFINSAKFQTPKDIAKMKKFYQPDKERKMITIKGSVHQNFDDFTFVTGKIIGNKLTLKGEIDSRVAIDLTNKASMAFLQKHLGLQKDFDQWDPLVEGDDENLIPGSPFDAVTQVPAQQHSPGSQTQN
The assay can be described thus: In vitro competitive activity-based protein profiling (HT-01 probe, gel band PLA2G7). The format is biochemical. The arrangement: Lp-PLA2 % at 100 μM: scale not given here. To be noted: mouse brain membrane proteomes. The procedure:
(§1) Compounds are tested to assess their Lp-PLA2 and serine hydrolase activity using the following in vitro assays.
(§2) In Vitro Competitive Activity-Based Protein Profiling
(§3) Mouse brain membrane proteomes (50 μL, 1.0 mg/mL total protein concentration) were preincubated with varying concentrations of inhibitors at 37° C. After 30 min, HT-01 probe (1.0 μL, 50 μM in DMSO) was added and the mixture was incubated for another 30 min at room temperature. Reactions were quenched with SDS loading buffer (15 μL-4×) and run on SDS-PAGE gels. Following gel imaging, serine hydrolase activity was determined by measuring fluorescent intensity of gel bands corresponding to PLA2G7 and ABHD6 using ImageJ 1.49 k software.

Another assay has as its target T2, ABHD6 (Mus musculus, UniProt Q8R2Y0).
T2 construct: Mouse brain membrane proteomes (50 μL, 1.0 mg/mL total protein concentration) were preincubated; from tissue; host or cells: mouse brain membrane fraction
T2 sequence (Q8R2Y0 1-336): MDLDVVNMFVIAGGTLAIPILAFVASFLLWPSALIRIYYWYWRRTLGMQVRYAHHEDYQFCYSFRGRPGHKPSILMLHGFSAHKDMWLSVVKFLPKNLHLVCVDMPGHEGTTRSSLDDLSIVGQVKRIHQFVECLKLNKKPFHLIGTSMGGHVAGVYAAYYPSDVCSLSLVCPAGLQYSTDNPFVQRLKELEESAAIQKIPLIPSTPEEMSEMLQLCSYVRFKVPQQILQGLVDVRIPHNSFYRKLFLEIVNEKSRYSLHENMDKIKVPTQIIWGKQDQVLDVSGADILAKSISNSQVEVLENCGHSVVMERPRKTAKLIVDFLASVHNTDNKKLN
The experiment in a line: In vitro competitive activity-based protein profiling (HT-01 probe, gel band ABHD6). The arrangement: ABHD6 % at 100 μM: scale not given here. Format: biochemical. To be noted: mouse brain membrane proteomes. The method, then: as §1, §2, §3

Take `O=C(ON1C(=O)N[C@@H](Cc2ccc(Cl)cc2)C1=O)N1CCN(c2cccc(C(=O)N3CCCCC3)c2Cl)CC1` [Example 23, (S)-4-(4-chlorobenzyl)-2,5-dioxoimidazolidin-1-yl 4-(2-chloro-3-(piperidine-1-carbonyl)phenyl)piperazine-1-carboxylate]: the “Lp-PLA2 % at 100 μM” value on Lp-PLA2 (at 100 μM) amounted to 50% at 100 μM. In addition, at ABHD6 (at 100 μM), the “ABHD6 % at 100 μM” value was determined as 50% at 100 μM.
As to `COc1ccc(C[C@@H]2NC(=O)N(OC(=O)N3CCN(c4cccc(C(=O)N5CCCCC5)c4Cl)CC3)C2=O)cc1` [Example 24, (S)-4-(4-methoxybenzyl)-2,5-dioxoimidazolidin-1-yl 4-(2-chloro-3-(piperidine-1-carbonyl)phenyl)piperazine-1-carboxylate], the IC50 on Lp-PLA2 (30 min preincubation at 37° C) and at ABHD6 (30 min preincubation at 37° C) was below 100 nM in each case.
